Measurements reported in patent publication US20190183114A1, “METHODS AND COMPOSITIONS FOR THE PRESERVATIONOF ORGANS” (INSERM (Institut National de la Sante et de la Recherche …, priority 2016, published 2019).
“Also recorded” adds a separate entry of the source.

Assays:
Assay type in all cases: cell-based, human
HAEC = assay: XTT viability assay on HAEC subjected to 24 h of cold ischemia followed by 6 h of reperfusion; details: for cell viability / survival after ischemia reperfusion (XTT): 24 h ischemia + 6 h reperfusion, treated during hypoxia from start (AEBSF 300 μM, Salubrinal 75 μM, STF083010 10 μM, 4μ8c 10 μM); for protection against cell death, treatment delayed by 12 h after start of cold ischemia: treatment after 12 h; for protection against cell death, treatment delayed by 12 h after start of cold ischemia / protection against cell death, treatment delayed by 6 h after start of cold ischemia: data not shown; for protection against cell death, treatment delayed by 6 h after start of cold ischemia: treatment only at 6 h
Protocol: Primary human aortic endothelial cells (HAEC) were obtained from Gibco (Lot No: #765093 and Lot No: #999999) and cultured on 1% gelatin (Sigma) coated flasks of 75 cm^2 in M200 medium supplemented with LSGS (Gibco), 8% fetal bovine serum (FBS), and 100 μg/mL penicillin and streptomycin in a humidified atmosphere at 21% O2, 5% CO2 and 37° C. The cells were split at a ratio of 1:4 every 5 days. Cells up to passage 5 were used in this study. All cell culture media, serum, and supplements were purchased from Invitrogen. STF083010 (10 μM) and 4μ8c (10 μM) were purchased from Axon MedChem. Salubrinal (75 μM) was from R&D. Tunicamycin ([…]), sodium 4-phenylbutyrate (1 mM), and 4-(2-Aminoethyl)benzenesulfonyl fluoride (AEBSF, 300 μM) were from Sigma. All chemicals were dissolved in DMSO (Sigma). IRE1α^−/− and IRE1α^+/+—which are IRE1α^−/− cells rescued by a retrovirus encoding a Flag-tagged human IRE1α—murine embryonic cells (MEC) were produced as previously described (Volmer R, Ploeg K van der, Ron D. Membrane lipid saturation activates endoplasmic reticulum unfolded protein response transducers through their transmembrane domains. Proc. Natl. Acad. Sci. 2013; 201217611). MEC were cultured in DMEM high-glucose media (Gibco) supplemented with 10% FBS, non-essential amino acids (Gibco), penicillin and streptomycin (Gibco), L-glutamine (Gibco), and puromycin (3 μg/mL).
(§1) HAEC were washed with PBS before being incubated in cold University of Wisconsin (UW) preservation solution in a chamber with hypothermic (4° C.) hypoxic atmosphere obtained by flushing the chamber atmosphere with Bactal 2 (0% O2, 95% N2 and 5% CO2) until the reach of 0% 02 in the chamber atmosphere. The oxygen level was controlled with the oximeter Oxy-4 micro from PreSens Precision Sensing GmbH with channels present in the outside atmosphere, the chamber atmosphere, and the cell supernatant. To perform the normothermic reoxygenation, cells were washed with PBS and then incubated with M200 supplemented with 2% FBS in a humidified atmosphere at 21% O2, 5% CO2 and 37° C. The durations of both hypoxia and reoxygenation are indicated in figure legends and in the manuscript.
Reverse transfection were performed using ON-TARGETplus SMART pool siRNAs targeting IRE1α (#L-004951-02-0005), XBP1 (#L-009552-00-0005), PERK (#L-004883-00-0005), ATF4 (#L-005125-00-0005), ATF6 (#L-009917-00-0005), or ON-TARGETplus Non-targeting Pool control siRNAs (#D-001810-10-05). They were purchased from Dharmacon and used at a final concentration of 20 nM. The transfection was performed using Lipofectamine RNAiMAX and Opti-MEM reduced serum medium according to the manufacturer's instructions (Invitrogen). After 6 hours of transfection, the cell medium was replaced with fresh cell culture medium containing 10% of FBS, LSGS but no antibiotics and no antimycotics. After 24 hours of transfection, cells were subjected to hypoxia-reoxygenation experiments. For cells in 96- and 24-wells plates, cell viability was analyzed according to protocol provided (XTT cell proliferation kit II, Roche Diagnostics) while cells in 6-wells were subjected to RT-qPCR analysis to detect knockdown efficiency.

CHOP [1] = assay: RT-qPCR of CHOP mRNA in HAEC subjected to 24 h of ischemia
Protocol: as §1, with “The durations of both hypoxia and reoxygenation are indicated in figure legends and in the manuscript.” left out
(§2) RNA was extracted from HAEC using the NucleoSpin RNA kit (Macherey-Nagel) containing a DNase treatment to remove potentially contaminating genomic DNA. […] A quantity of 1 μg of total RNA was reverse-transcribed with High Capacity cDNA Reverse Transcription kit (ABsystems). RT-qPCR was performed in triplicate with negative template controls, negative enzyme controls and the use of a calibrator to limit inter-run variations as recommended by the MIQE guidelines (Bustin S A, Benes V, Garson J A, Hellemans J, Huggett J, Kubista M, et al. The MIQE Guidelines: Minimum Information for Publication of Quantitative Real-Time PCR Experiments. Clin. Chem. 2009; 55:611-22). […]

IRE1α's RNase activity [2] = assay: XBP1s and Erdj4 expression in tunicamycin-stimulated cells; details: data not shown
Protocol: (§3) Primary human aortic endothelial cells (HAEC) were obtained from Gibco (Lot No: #765093 and Lot No: #999999) and cultured on 1% gelatin (Sigma) coated flasks of 75 cm^2 in M200 medium supplemented with LSGS (Gibco), 8% fetal bovine serum (FBS), and 100 μg/mL penicillin and streptomycin in a humidified atmosphere at 21% O2, 5% CO2 and 37° C. The cells were split at a ratio of 1:4 every 5 days. Cells up to passage 5 were used in this study. All cell culture media, serum, and supplements were purchased from Invitrogen. STF083010 (10 μM) and 4μ8c (10 μM) were purchased from Axon MedChem. […]
as §2

IRE1α's RNase activity [3] = assay: XBP1 mRNA splicing in cells subjected to 6 h ischemia; details: data not shown
Protocol: as §1
We followed the method used in (Fougeray S, Bouvier N, Beaune P, Legendre C, Anglicheau D, Thervet E, et al. Metabolic stress promotes renal tubular inflammation by triggering the unfolded protein response. Cell Death Dis. 2011; 2:e143). The XBP1 cDNA encompassing the region of restriction site was amplified by PCR. […] The spliced isoform of XBP1 mRNA was resistant to Pst1 and was detected as a 448-bp amplification product whereas the unspliced isoform, containing Pst1 restriction site, was detected by the presence of two amplification products of 291-bp and 183-bp (FIG. 8A, right).

ATF6 [4] = assay: Western blot analysis of ATF6 at different times of ischemia; details: data not shown
Protocol: as §1
(§4) HAEC were washed in cold PBS and resuspended in complete lysis buffer (Roche Diagnostics, #04719956001) before being sonicated at output power of 2 for 3 seconds (Branson Sonifier 450). The protein concentration of cell lysate supernatants was measured by BCA protein assay (Bio-Rad, #23225). […] The bound primary antibodies were detected with ChemiDoc™ MP imager (Bio-Rad) by the use of HRP-conjugated secondary antibody and the ECL detection system (Amersham Biosciences). […]

ATF6 [5] = assay: RT-qPCR of ATF6 downstream targets HerpUD and GRP78 in tunicamycin-treated HAEC; details: 6 h tunicamycin
Protocol: as §3, §2

CHOP [6] = assay: RT-qPCR of CHOP mRNA in tunicamycin-treated HAEC; details: 6 h tunicamycin, hydrochloride
Protocol: as §3, §2

ATF4 = ATF4 production in EC subjected to 6 h of ischemia; details: data not shown
Protocol: as §1, §4

In the case of `O=S(=O)(N=Cc1c(O)ccc2ccccc12)c1cccs1` [STF083010, N-[(2-Hydroxy-1-naphthalenyl)methylene]-2-thiophenesulfonamide], the “cell viability / survival after ischemia reperfusion (XTT)” value (“cell viability / survival” for short) (HAEC) is reported as “improves viability; also recorded: increased EC survival”, the “cell viability / survival” value (HAEC; listed as STF) is reported as “significantly increased EC survival” and the “protection against cell death, treatment delayed by 12 h after start of cold ischemia” value (HAEC) is reported as “did not alter the protection”. For the same compound, the “protection against cell death, treatment delayed by 6 h after start of cold ischemia” value (from here on “protection … by 6 h after start of cold ischemia”) (HAEC) was “did not alter the protection”, the “CHOP mRNA expression” value (CHOP [1]) was “decreased CHOP mRNA expression” and the “CHOP mRNA expression” value (CHOP [1]; listed as STF) was “significantly decreased CHOP expression to control levels”. For the same compound, the Erdj4 expression (IRE1α's RNase activity [2]) was “abrogated”, the XBP1s expression (IRE1α's RNase activity [2]) was “abrogated” and the “XBP1 mRNA splicing” value (IRE1α's RNase activity [3]) was “inhibited splicing”. For the same compound, the “ATF6 expression (Western blot)” value (ATF6 [4]; after 12 h of ischemia) was “trend towards increased ATF6 expression” and the “ATF6 expression (Western blot)” value (ATF6 [4]; at 24 h of ischemia) was “no significant differences”.
In the case of `Cl.NCCc1ccc(S(=O)(=O)F)cc1` [AEBSF, 4-(2-Aminoethyl) benzenesulfonyl fluoride hydrochloride], the “cell viability / survival” value (HAEC; hydrochloride) is reported as “improves viability; also recorded: protected endothelial cells against cold ischemia-induced death; also recorded: correctly protected EC against death”, the “protection against cell death, treatment delayed by 12 h after start of cold ischemia” value (HAEC) is reported as “protective effect was significantly lost” and the “protection … by 6 h after start of cold ischemia” value (HAEC) is reported as “trend towards decreased protection”. For the same compound, the “GRP78 mRNA expression” value (ATF6 [5]) was “decreased”, the “HerpUD mRNA expression” value (ATF6 [5]) was “decreased” and the “CHOP mRNA expression” value (CHOP [6]) was “decreases CHOP expression; also recorded: lower CHOP mRNA expression”.
With `Cc1cc(=O)oc2c(C=O)c(O)ccc12` [4μ8c] the “cell viability / survival” value (HAEC) was “increased EC survival”.
`O=C(C=Cc1ccccc1)NC(NC(=S)Nc1cccc2cccnc12)C(Cl)(Cl)Cl` (stereo not shown) [Salubrinal, 3-phenyl-N-[2,2,2-trichloro-1-[[(8-quinolinylamino)thioxomethyl]amino]ethyl]-2-propenamide] was tested, and the “cell viability / survival” value (HAEC) was “improves viability; also recorded: significantly increased EC survival”, the “cell viability / survival” value (HAEC; listed as Salubinal) was “significantly protected cells against death” and the “protection … by 6 h after start of cold ischemia” value (HAEC) was “lost”. The ATF4 production (ATF4) was “effectively increased”.
